Results on eight compounds are retold here after PMC7576996, “Antiparasitic Behavior of Trifluoromethylated Pyrazole 2-Amino-1,3,4-thiadiazole Hybrids and Their Analogues: Synthesis and Structure-Activity Relationship” (Frontiers in Pharmacology, 2020).

Usually IC50 stands for the concentration at which inhibition is half-maximal. Broadly, the melting point is the temperature, or range, at which the solid turns liquid. For orientation: CC50 means the concentration at which the toxic effect on the cells reaches its halfway point. Higher therefore signals lower toxicity to the cells.

In data set [1] the test system is promastigote form of Leishmania amazonensis. The data set can be described thus: Antiproliferative assay, promastigote form of Leishmania amazonensis (XTT, 72 h). In kind it is cell-based. As to conditions: for SI L-M, selectivity index (Macrophages CC50/L. amazonensis IC50): J774A1 vs promastigotes; for SI L-E, selectivity index (Epithelial CC50/L. amazonensis IC50): LLCMK2 vs promastigotes; for IC50: Leishmania amazonensis, promastigote form, 72 h, mean ± standard deviation, read-out: L. amazonensis IC50. As to the method:
(§1) All the novel trifluoromethylated pyrazoles derivatives 2a–f, 3a–f, and 4a–f were evaluated against the promastigote form of L. amazonensis and the epimastigote form of T. cruzi. The results are reported as the concentration causing a 50% inhibition in cell growth (IC50). Additionally, the toxicity of compounds was evaluated against two different cell lines: epithelial cell LLCMK2 and macrophages J774A1. The antiproliferative and cytotoxic activities are shown in Table 2 , as well as the calculated selectivity index (SI).
(§2) 2.4. Antiproliferative activity
(§3) Promastigotes forms of Leishmania amazonensis (strain WHOM/ BR/75/JOSEFA) were
(§4) cultured in Warren medium (brain heart infusion, hemin, and folic acid; pH 7.4) supplemented with
(§5) 10% fetal bovine serum (FBS) at 25 °C. Epimastigote forms of Trypanosoma cruzi (Y strain) were
(§6) cultured in LIT medium (liver infusion tryptose; hemim, and folic acid; pH 7.4) supplemented with
(§7) Cytotoxicity activity was determined in LLCMK2 (epithelial cells of kidney of Macaca
(§8) mulatta) cells and J774A1 macrophages. LLCMK2 (epithelial cells of kidney of Macaca mulatta) cells
(§9) were cultured in Dulbecco’s modified Eagle’s medium (DMEM, pH 7.2) supplemented with 10% FBS
(§10) at 37 °C in a 5% CO2 atmosphere. J774A1 macrophages were cultured in RPMI-1640 (pH 7.2) medium
(§11) supplemented with 10% FBS at 37 °C in a 5% CO2 atmosphere.
(§12) 2.4.2. Dilution of compounds
(§13) Stock solutions of the compounds were prepared in DMSO and then diluted in the respective
(§14) medium. The groups (controls and treated) were tested with DMSO concentrations below 1%, with
(§15) 2.4.3. Antiproliferative assay
(§16) Promastigote forms (1 × 10^6 parasites/mL) were cultured in 96-well plates in the presence and
(§17) absence of different concentrations of compounds diluted in Warren medium supplemented with 10%
(§18) FBS and incubated for 72h. Epimastigote forms (1 × 10^6 parasites/mL) were cultured in 96 -well plates
(§19) in the presence and absence of different concentrations of compounds diluted in LIT medium
(§20) supplemented with 10% FBS and incubated for 96h. After treatment, the parasites were incu bated with
(§21) a solution of 2,3 -bis (2 -methoxy -4-nitro -5-sulfophenyl) -2H-tetrazolium -5-carboxanilide (XTT; 0.5
(§22) mg/mL) and phenazine methanesulfonate activator (PMS; 0.06 mg/mL) in PBS for 4h. Then, the
(§23) absorbance was read in a microplate reader (Bio Tek - Power Wave XS) at 450 nm. The percentage of
(§24) viable parasites was calculated in relation to the control in order to determine the concentration that
(§25) inhibits 50% of the protozoa (IC 50).
(§26) 2.4.4. Cytotoxicity assay
(§27) LLCMK2 cells (2.5 × 10^5 cells/mL) suspension was prepared in DMEM medium supplemented
(§28) with 10% FBS and added to 96-well plates. Then, the plates were incubated at 37 °C in a
(§29) CO2 atmosphere for 24h to obtain confluent cell growth. After incubation, cells were treated or not
(§30) with different concentrations of compounds diluted in DMEM for 72 h. Macrophage (5 × 10^5 cells/mL)
(§31) suspension was prepared in RPMI-1640 medium supplemented with 10% FBS and added to 96-well
(§32) plates. Then, the plates were incubated at 37 °C in a CO2 atmosphere for 24h to obtain confluent cell
(§33) growth. After incubation, cells were treated or not with different concentrations of compounds diluted
(§34) in RPMI-1640 for 48h. After treatment, medium was removed and cells were incubated with MTT (2
(§35) mg/mL) for 4h. Then, DMSO was added for solubilization of the formazan and analyzed with a reading

Data set [2] concerns epimastigote form of Trypanosoma cruzi. The data set can be described thus: Antiproliferative assay, epimastigote form of Trypanosoma cruzi (XTT, 96 h). The conditions noted are these: for SI T-M, selectivity index (Macrophages CC50/T. cruzi IC50): J774A1 vs epimastigotes; for SI T-E, selectivity index (Epithelial CC50/T. cruzi IC50): LLCMK2 vs epimastigotes; for IC50: Trypanosoma cruzi, epimastigote form, 96 h, mean ± standard deviation, read-out: T. cruzi IC50. In kind it is cell-based. How it is done:
as §1, §2, §3, §4, §5, §6, §7, §8, §9, §10, §11, §12, §13, §14, §15, §16, §17, §18, §19, §20, §21, §22, §23, §24, §25, §26, §27, §28, §29, §30, §31, §32, §33, §34, §35

Data set [3] is described as follows: Cytotoxicity assay in J774A1 macrophages (MTT, 48 h). In kind it is cell-based. The conditions noted are these: mouse, pH 7.2, J774A1, 50% inhibition of growth. How it is done: as §1
(§36) 2.4. Antiproliferative activity […]
as §7, §8, §9, §10, §11, §12, §13, §14
(§37) 2.4.3. Antiproliferative assay […]
as §26, §27, §28, §29, §30, §31, §32, §33, §34, §35
(§38) microplate reader (BIO-TEK PowerWave XS spectrophotometer) at 392 nm. The percentage of viable
(§39) cells was calculated in relation to the control to determine the cytotoxic concentration to 50% of the […]

Data set [4] in a line: Cytotoxicity assay in LLCMK2 epithelial cells (MTT, 72 h). In kind it is cell-based. The conditions noted are these: Macaca mulatta, LLCMK2 kidney epithelial cells, pH 7.2, LLCMK2, 50% inhibition of growth. As to the method: as §1, §36, §7, §8, §9, §10, §11, §12, §13, §14, §37, §26, §27, §28, §29, §30, §31, §32, §33, §34, §35, §38, §39

In turn, `NC(=S)NN=Cc1c(C(F)(F)F)nn(-c2ccccc2)c1-c1ccc(F)cc1` [2b, 4-[(2-carbamothioyl-hydrazinylidene)methyl]-3-trifluoromethyl-5-(4-fluorophenyl)-1-phenyl-1H-pyrazole] showed a melting point of 221.18 °C. Besides, in data set [1], the “SI L-M, selectivity index (Macrophages CC50/L. amazonensis IC50)” value (shortened to “SI L-M, selectivity index”) came out at 4.09; the “SI L-E, selectivity index (Epithelial CC50/L. amazonensis IC50)” value (“SI L-E, selectivity index” for short) came to 6.97; the IC50 is 49.6 ± 3.8 µM. Besides, in data set [2], the “SI T-M, selectivity index (Macrophages CC50/T. cruzi IC50)” value (shortened to “SI T-M, selectivity index”) amounted to 2.92; the “SI T-E, selectivity index (Epithelial CC50/T. cruzi IC50)” value (shortened to “SI T-E, selectivity index”) is on record as 4.99; the IC50 was 69.3 ± 2.9 µM. The same compound showed a cytotoxic concentration (CC50) at 48 h in data set [3] of 203 ± 5.9 µM. This compound also registered a CC50 at 72 h in data set [4] of 345.7 ± 2.6 µM.

On to `NC(=S)NN=Cc1c(C(F)(F)F)nn(-c2ccccc2)c1-c1ccc(Cl)cc1` [2c, 4-[(2-carbamothioyl-hydrazinylidene)methyl]-5-(4-chlorophenyl)-3-trifluoromethyl-1-phenyl-1H-pyrazole], for which the melting point is 225.37 °C. Also, in data set [1], the “SI L-M, selectivity index” value was 9.02; the “SI L-E, selectivity index” value was 8.45; the half-maximal inhibitory concentration (IC50) is 44.6 ± 6.2 µM. In data set [2], the “SI T-M, selectivity index” value amounted to 8.17; the “SI T-E, selectivity index” value came to 7.66; the IC50 was determined as 49.2 ± 3.1 µM. In data set [3], this compound showed a CC50 at 48 h of 402 ± 8.3 µM. The CC50 at 72 h in data set [4] stood at 377 ± 5 µM.

For `Nc1nnc(-c2c(C(F)(F)F)nn(-c3ccccc3)c2-c2ccc([N+](=O)[O-])cc2)s1` [4a, 4-[(2-amino)-1,3,4-thiadiazo-5-yl]-3-trifluoromethyl-5-(4-nitrophenyl)-1-phenyl-1H-pyrazole], the melting point came out at 236.7 °C. Further, in data set [1], the “SI L-M, selectivity index” value was found to be 14.56; the “SI L-E, selectivity index” value is 10.78; the IC50 stood at 19.6 ± 1.5 µM. In data set [2], the “SI T-M, selectivity index” value stood at 9.84; the “SI T-E, selectivity index” value was determined as 7.29; the IC50 amounted to 29 ± 2.7 µM. The same compound returned a 50% cytotoxic concentration (CC50) at 48 h in data set [3] of 285 ± 5.6 µM. Half-maximal cytotoxicity in data set [4] (CC50 at 72 h) was put at 211 ± 3.1 µM.

On to `CSC(N)=NN=Cc1c(C(F)(F)F)nn(-c2ccccc2)c1-c1ccc(Cl)cc1` [3c], for which the melting point was 188.5 °C. Also, in data set [1], the “SI L-M, selectivity index” value worked out at 9.80; the “SI L-E, selectivity index” value is 9.68; the IC50 stood at 30.7 ± 2.2 µM. Moreover, in data set [2], the “SI T-M, selectivity index” value is recorded as 8.09; the “SI T-E, selectivity index” value came out at 7.99; the IC50 is 37.2 ± 4.8 µM. This compound returned a cytotoxic concentration (CC50) at 48 h in data set [3] of 301 ± 3.9 µM. Further, the CC50 at 72 h in data set [4] came out at 297 ± 6.1 µM.

In turn, `O=Cc1c(C(F)(F)F)nn(-c2ccccc2)c1-c1ccc([N+](=O)[O-])cc1` [compound 5, 3-trifluoromethyl-4-formyl-5-(4-nitrophenyl)-1-phenyl-1H-pyrazole] gave a melting point of 155.2 to 156.1 °C. Besides, in data set [1], the “SI L-M, selectivity index” value is recorded as 3.35; the “SI L-E, selectivity index” value stood at 5.76; the IC50 is 73.1 ± 2.8 µM. In data set [2], the “SI T-M, selectivity index” value is recorded as 3.03; the “SI T-E, selectivity index” value came out at 5.22; the IC50 was found to be 80.8 ± 3.7 µM. In addition, the CC50 at 48 h in data set [3] came to 245 ± 2.7 µM. In data set [4], this compound yielded a CC50 at 72 h of 422 ± 12.3 µM.

The compound `COc1ccc(-c2c(-c3nnc(N)s3)c(C(F)(F)F)nn2-c2ccccc2)cc1` [4f, 4-[(2-amino)-1,3,4-thiadiazo-5-yl]-3-trifluoromethyl-5-(4-methoxyphenyl)-1-phenyl-1H-pyrazole] gave a melting point of 239.1 °C. In addition, in data set [1], the “SI L-M, selectivity index” value is on record as 9.14; the “SI L-E, selectivity index” value was 7.83; the IC50 was 17.1 ± 1.6 µM. In addition, in data set [2], the “SI T-M, selectivity index” value stood at 6.86; the “SI T-E, selectivity index” value turned out to be 5.87; the IC50 stood at 22.8 ± 1.2 µM. Also, in data set [3], it took 156 ± 4.1 µM to reach half-maximal cytotoxicity (CC50 at 48 h). The compound further gave a CC50 at 72 h in data set [4] of 134 ± 5.1 µM.

The compound `NC(=S)NN=Cc1c(C(F)(F)F)nn(-c2ccccc2)c1-c1ccccc1` [2e, 4-[(2-carbamothioyl-hydrazinylidene)methyl]-3-trifluoromethyl-1,5-diphenyl-1H-pyrazole] yielded a melting point of 211.27 °C. Besides, in data set [1], the “SI L-M, selectivity index” value worked out at 6.47; the “SI L-E, selectivity index” value turned out to be 6.39; the IC50 was 61.7 ± 2.9 µM. Besides, in data set [2], the “SI T-M, selectivity index” value worked out at 4.81; the “SI T-E, selectivity index” value was found to be 4.75; the half-inhibitory concentration (IC50) was 83.1 ± 5.3 µM. Besides, the CC50 at 48 h in data set [3] turned out to be 400 ± 6.6 µM. For the same compound, in data set [4], the CC50 at 72 h amounted to 394 ± 7.1 µM.

On to `CSC(N)=NN=Cc1c(C(F)(F)F)nn(-c2ccccc2)c1-c1ccc(F)cc1` [3b], for which the melting point was 145.5 °C. Moreover, in data set [1], the “SI L-M, selectivity index” value is given as 5.90; the “SI L-E, selectivity index” value was found to be 3.48; the IC50 worked out at 34.3 ± 4.7 µM. In addition, in data set [2], the “SI T-M, selectivity index” value was found to be 5.07; the “SI T-E, selectivity index” value amounted to 2.99; the IC50 turned out to be 39.9 ± 3.2 µM. This compound also had a CC50 at 48 h in data set [3] of 202 ± 3.4 µM. This compound also came in with a CC50 at 72 h in data set [4] of 119 ± 3 µM.
